These results are taken from ChEMBL document CHEMBL1201862, “PubChem BioAssay data set” (2004).

Common to all, as to test: NCI anticancer screen, dose series, 48 h
Assay [1] deals with HL-60.
In assay [2] the test system is ACHN.
The subject of assay [3] is OVCAR-4.
Assay [4] concerns SK-MEL-28.
In assay [5] the test system is NCI-H522.
Assay [6] concerns SW-620.
The test system of assay [7] is SF-268.
The subject of assay [8] is LXFL 529.
The test system of assay [9] is UACC-257.
Assay [10] relates to U-251.
Assay [11] relates to OVCAR-5.
Assay [12] has as its system KM12.
Assay [13] relates to NCI-H226.
Assay [14] deals with SK-MEL-5.
In assay [15] the test system is M19-MEL.
For assay [16], the system named is DMS-114.
Assay [17] relates to T47D.
In assay [18] the test system is PC-3.
For assay [19], the system named is MDA-MB-231.
Assay [20] relates to HOP-18.

Molecules are shown by their SMILES.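 Five compound concentrations were applied to cells in 96-well plates for 48 hours; endpoints were derived by simple linear interpolation of the resulting dose-response curve. GI50 = concentration required for 50% inhibition of growth.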 Active and inactive are the calls of the source. Cut-off read from the data, not from the text of the source: active = GI50 up to about 1.1 µM and inactive = higher. Where only a bound is given, the exact number is not on record here.

`COc1ccc2c3c([nH]c2c1[N+](=O)[O-])C(C)N(C(=O)/C=C/c1ccccc1)CC3` (configuration not stated): the GI50 in [1] was 2.64 µM (inactive); in [2], 9.77 µM (inactive); in assay [3], 21.9 µM (inactive); in [4] it was 5.14 µM (inactive); in assay [5], 2.9 µM (inactive); in assay [6], 3.56 µM (inactive). Further, the GI50 in assay [7] was 1.7 µM (inactive); in assay [8], 5.9 µM (inactive); in [9], 3.83 µM (inactive); in assay [10], 7.01 µM (inactive); in assay [11], > 100 µM (inactive); in [12], 4.24 µM (inactive). The GI50 in assay [13] is 10.9 µM (inactive).
Regarding `CCNC(=O)c1ccc(C)c(/N=N/N(C)C)c1`, the GI50 is > 100 µM (inactive) in assay [2]; > 100 µM (inactive) in assay [3]; > 100 µM (inactive) in assay [14]; > 100 µM (inactive) in [4]; 81.1 µM (inactive) in [5]; > 100 µM (inactive) in assay [6]. Further, the GI50 in [7] was 77.1 µM (inactive); in assay [8], > 100 µM (inactive); in assay [9], > 100 µM (inactive); in assay [10], > 100 µM (inactive); in [15], > 100 µM (inactive); in assay [12] it was > 100 µM (inactive).
As for `c1cnn(CN(Cn2cccn2)Cn2cccn2)c1`, the GI50 in assay [1], in assay [2], in [3], in [14], in assay [4] and in assay [5] was > 100 µM (inactive) each time. For the same molecule, the GI50 in assay [6], in assay [7], in assay [9], in assay [10], in [16] and in assay [15] was > 100 µM (inactive) in each case. The GI50 in assay [12] was > 100 µM (inactive).
As for `Cc1ccc(OCC2OC(n3cnc4c(Cl)nc(Cl)nc43)CC2Oc2ccc(C)cc2)cc1` (configuration not stated), the GI50 in assay [1] was 2.36 µM (inactive); in assay [2], 1.37 µM (inactive); in [3], 2.15 µM (inactive); in assay [14], 7.1 µM (inactive); in assay [4], 2.7 µM (inactive); in assay [5], 1.74 µM (inactive). The GI50 is 3.66 µM (inactive) in [6]; 1.96 µM (inactive) in assay [7]; 2.68 µM (inactive) in assay [9]; 2.14 µM (inactive) in assay [17]; 2.13 µM (inactive) in assay [10]; 5.78 µM (inactive) in assay [11]. In addition, the GI50 in [18] was 2.44 µM (inactive); in assay [12] it was 1.7 µM (inactive); in assay [13] it was 3 µM (inactive); in assay [19], 2.08 µM (inactive).
As to `CC1=C(C(=O)Nc2ccccc2C)C(c2ccc(N(C)C)cc2)C(C(=O)Nc2ccccc2C)=C(C)N1`, the GI50 in [1] was 19 µM (inactive); in assay [2], 67.6 µM (inactive); in assay [14], 38.5 µM (inactive); in [4], 74.8 µM (inactive); in [5], 37.8 µM (inactive); in [6] it was 51.8 µM (inactive). The GI50 was 70.5 µM (inactive) in assay [7]; 71.6 µM (inactive) in assay [9]; > 100 µM (inactive) in [10]; > 100 µM (inactive) in assay [11]; 48.4 µM (inactive) in assay [16]; > 100 µM (inactive) in assay [15]. For the same molecule, the GI50 in assay [12] was 48.4 µM (inactive); in assay [13], > 100 µM (inactive).
On to `CCc1nc(N)nc(N)c1-c1ccc([N+](=O)[O-])c(NCc2ccccc2)c1`, for which the GI50 in assay [1] is 5.82 µM (inactive); in [2], 15.3 µM (inactive); in assay [3], 15.2 µM (inactive); in assay [14], 6.05 µM (inactive); in assay [4], 16.4 µM (inactive); in [5], 15.9 µM (inactive). In addition, the GI50 in assay [6] was 12.6 µM (inactive); in assay [7] it was 14.9 µM (inactive); in [9], 12.8 µM (inactive); in [17], 6.47 µM (inactive); in [10], 12.8 µM (inactive); in [11], 22.4 µM (inactive). The GI50 in [18] is 12.8 µM (inactive); in assay [12], 17.3 µM (inactive); in assay [13], 18.7 µM (inactive); in assay [19], 14.8 µM (inactive).
For the molecule `O=C1Oc2ccccc2C(=O)/C1=C\Nc1nc(-c2ccc(O)c(O)c2)cs1`, the GI50 in assay [1] was 2.32 µM (inactive); in assay [2], 2.88 µM (inactive); in [3], 10.7 µM (inactive); in assay [14], 4.8 µM (inactive); in assay [4] it was 9.12 µM (inactive); in assay [5] it was 2.05 µM (inactive). Moreover, the GI50 was 2.44 µM (inactive) in assay [6]; 5.25 µM (inactive) in assay [7]; 3.61 µM (inactive) in assay [9]; 4.55 µM (inactive) in assay [17]; 5.01 µM (inactive) in assay [10]; 16.2 µM (inactive) in assay [11]. The GI50 was 3.24 µM (inactive) in assay [18], 9.08 µM (inactive) in assay [12], 6.31 µM (inactive) in assay [13] and 5.7 µM (inactive) in assay [19].
In the case of `c1ccc2c3nnc(c2c1)SCCSCCCSCCS3`, the GI50 in [1] was > 100 µM (inactive); in [2], 61.1 µM (inactive); in assay [3], 2.9 µM (inactive); in assay [14], 54.1 µM (inactive); in assay [4] it was > 100 µM (inactive); in [5], 50.9 µM (inactive). Besides, the GI50 in [6] was > 100 µM (inactive); in [7], 43.5 µM (inactive); in [9], > 100 µM (inactive); in assay [17], > 100 µM (inactive); in assay [10], 36.1 µM (inactive); in [11] it was > 100 µM (inactive). For the same molecule, the GI50 is 43.1 µM (inactive) in [18], > 100 µM (inactive) in [12], 35.6 µM (inactive) in [13] and 22.1 µM (inactive) in assay [19].
For the molecule `CC(C)CCCC(C)C1CCC2C3CC([N+](=O)[O-])=C4CC(O)CCC4(C)C3CCC12C` (configuration not stated), the GI50 in assay [1] is 25 µM (inactive); in [2], 43.4 µM (inactive); in assay [3], 21.4 µM (inactive); in assay [14], > 10 µM (inactive); in assay [4], 13.7 µM (inactive); in assay [5], 17.5 µM (inactive). The GI50 in assay [6] was 25.9 µM (inactive); in assay [7], 24.3 µM (inactive); in assay [8] it was 18.7 µM (inactive); in assay [9], 10.8 µM (inactive); in assay [10], 15.5 µM (inactive); in [16] it was 22 µM (inactive). Further, the GI50 was 27.6 µM (inactive) in assay [15] and 16.4 µM (inactive) in assay [12].
For `OCc1ccc2c(c1)CC1(C2)Cc2cc3c(cc2C1)CCC3`, the GI50 is 1.11 µM (active) in assay [1]; 5.31 µM (inactive) in [2]; 17.4 µM (inactive) in assay [3]; 2.3 µM (inactive) in assay [14]; 8.3 µM (inactive) in [4]; 3.52 µM (inactive) in assay [5]. For the same molecule, the GI50 in [6] was 1.77 µM (inactive); in assay [7], 17.5 µM (inactive); in assay [9] it was 7.48 µM (inactive); in assay [17], 4.82 µM (inactive); in assay [10], 2.99 µM (inactive); in assay [11], > 100 µM (inactive). The GI50 in assay [18] was 1.19 µM (inactive); in assay [12], 1.9 µM (inactive); in assay [13] it was 22.4 µM (inactive); in [19] it was 1.34 µM (inactive).
As to `Nc1nc(N)c(-c2ccccc2)c(C(=O)Nc2ccccc2)n1`, the GI50 in assay [2], in assay [3], in assay [14], in assay [4], in [5] and in assay [6] was > 100 µM (inactive) throughout. Also, the GI50 in assay [7], in assay [9], in [10], in assay [11], in assay [15] and in [12] was > 100 µM (inactive) each time. For the same molecule, the GI50 in assay [13] and in [20] was > 100 µM (inactive) throughout.
Take `Cc1cc(O)c(C=O)c2c1C(=O)Oc1c(CO)c(O)c3c(c1O2)C(O)OC3=O` (configuration not stated) [SLAZINIC ACID]: the GI50 was 30.1 µM (inactive) in [1]; 40.1 µM (inactive) in [2]; 27.5 µM (inactive) in assay [3]; 34.3 µM (inactive) in assay [14]; 91.8 µM (inactive) in assay [4]; 42.3 µM (inactive) in assay [5]. For the same molecule, the GI50 in assay [6] is 60 µM (inactive); in [7] it was 34.4 µM (inactive); in [9] it was > 100 µM (inactive); in assay [17], 54.5 µM (inactive); in assay [10], 60.5 µM (inactive); in [11], > 100 µM (inactive). Also, the GI50 in assay [18] was > 100 µM (inactive); in [12], 36.7 µM (inactive); in [13] it was 38.8 µM (inactive); in [19], > 100 µM (inactive).
`COc1ccc(NCc2cc(OC)c(OC)c(OC)c2)cc1`: the GI50 was 0.115 µM (active) in [1]; 21.4 µM (inactive) in [3]; 0.207 µM (active) in assay [14]; 0.275 µM (active) in assay [4]; 0.372 µM (active) in assay [5]; 0.234 µM (active) in assay [6]. The GI50 in assay [7] was 1 µM (active); in [8], 0.614 µM (active); in assay [10] it was 0.439 µM (active); in assay [12], 0.13 µM (active).
Turning to `CCCCCn1c(=O)c2c(=O)[nH][nH]c2c2ccccc21`, the GI50 in assay [1], in assay [2], in assay [3], in assay [14], in [4] and in [5] was > 100 µM (inactive) throughout. The GI50 in assay [6], in [7], in [9], in assay [17], in assay [10] and in assay [11] was > 100 µM (inactive) in each case. Moreover, the GI50 in assay [18], in assay [12], in assay [13] and in assay [19] was > 100 µM (inactive) throughout.
